Assay results taken from patent publication US9827313B2, “Self-assembled pharmaceutical composition for photodynamic therapy” (SNU R&DB FOUNDATION, priority 2014, dated 2017).

Key:
HCT116 cancer cells = experiment: pH-dependent cellular uptake (flow cytometry, fluorescence imaging); format: cell-based, human; conditions: HCT116, pH 6.8 vs pH 7.4
Protocol: HCT116 cells were exposed to PMNs, InS-NPs and Ce6 at different pHs to verify their cellular uptake respectively. The cells were incubated for 2 h, washed, harvested, and re-suspended with DPBS. In vitro cellular uptake was quantified using a flow cytometer (Beckman, San Jose, Calif., USA). For each sample 10,000 cells (gated events) were counted, and free Ce6 fluorescence was detected with logarithmic settings (FL4; λem=670 nm). Cells were counted as positive if their fluorescence (FL4) was higher than that of cells from an untreated cell suspension. Each experiment was analyzed statistically using the CXP Analysis Program.
The tumor cellular uptake of PMNs was monitored at different pH conditions (pH 7.4 and 6.8) using a KODAK In vivo Image Station (Image Station 4000 MM; Kodak, New Haven, Conn., USA) and a flow cytometer (Beckman, San Jose, Calif., USA). HCT116 cells (1×10^5 cells/mL) were incubated with each sample for 2 h in RPMI-1640 medium (pH 7.4 or 6.8, with 1% penicillin-streptomycin) at 37° C. and then analyzed. To ameliorate photobleaching during microscope observation, a drop of anti-fade mounting solution (5% N-propyl gallate, 47.5% glycerol, and 47.5% Tris-HCl, pH 8.4) was added to the cells.

[1] = system: heterogeneous CT26 tumors; experiment: In vivo PDT in heterogeneous drug-resistant CT26 tumors; set-up: species or system BALB/c nude mice; conditions: heterogeneous CT26 tumors after PDT
Protocol: For histology analysis, tumor tissues from control and treated mice were fixed in 10% neutral buffered formalin and frozen sectioned into 5 micron thick slices, stained with hematoxylin & eosin (H&E) and terminal deoxynucleotidyl transferase dUTP nick-end labeling (TUNEL), and were examined by a digital microscope (Leica QWin) and a confocal laser scanning microscope (LSM 510 Meta; Zeiss, Germany).
For in vitro PDT, HCT116 cells (5×10^4/well) were incubated with the materials described above. Photosensitization experiments were then performed by irradiating the cells with a 670-nm laser source (Institute of Electronics) for 2 min. The power at the level of the cells was fixed at 5 mW/cm^2. Cell viability was assessed using the MTT assay. Absorbance intensity was measured at 595 nm using a microplate reader (Bio-Tek, VT, USA). A parallel set of control cells was also used in which cells incubated with the respective materials were not exposed to laser irradiation. […] The tumor size was measured 3 times a week after the first PDT treatment by using a Vernier caliper, and tumor volumes were calculated from width (a) and length (b) measurements (V=a^2×b/2, where a≦b). All mice were killed when the tumor measured 1,000 mm^3, at the first sign of suffering, or between 15 and 21 day post-transplantation.

chlorin E6 [Ce6]
cellular uptake, pH dependence (HCT116 cancer cells): not affected by changes in pH | damage to tumor tissue cells, microvasculature and fibroblasts (H&E, TUNEL) [1]: no obvious damage
